Key:
[1] = Drug level in lung transplant recipient alveolar cell at 400 mg, po every 12 hrs after 5 hrs by LS/MS analysis; assay type: ADME, organism-based, Pneumocyte; conditions: human, alveolar cells, read-out: Drug uptake
[2] = Ratio of AUC (0 to 24 hrs) in lung transplant recipient epithelial lining fluid to MIC90 for Aspergillus spp.; assay type: functional
[3] = Cmax in lung transplant recipient alveolar cell at 400 mg, po every 12 hrs after 12 hrs by LC/MS analysis; assay type: ADME, organism-based, Pneumocyte; set-up: dose 400 mg, route oral; conditions: human, alveolar cells
[4] = T>MIC90 for Aspergillus spp. infected lung transplant recipient epithelial lining fluid at 400 mg, po every 12 hrs by LS/MS analysis; assay type: functional
[5] = Ratio of Cmax in lung transplant recipient epithelial lining fluid after 12 hrs to MIC90 for Aspergillus spp.; assay type: functional
[6] = Drug level in lung transplant recipient epithelial lining fluid at 400 mg, po every 12 hrs after 3 hrs by LS/MS analysis; assay type: ADME, organism-based; conditions: human, read-out: Drug uptake
[7] = Tmax in lung transplant recipient epithelial lining fluid at 400 mg, po every 12 hrs after 12 hrs by LC/MS analysis; assay type: ADME, organism-based; conditions: human
[8] = Drug level in lung transplant recipient alveolar cell at 400 mg, po every 12 hrs after 24 hrs by LS/MS analysis; assay type: ADME, organism-based, Pneumocyte; conditions: human, alveolar cells, read-out: Drug uptake
[9] = Drug level in lung transplant recipient alveolar cell at 400 mg, po every 12 hrs after 12 hrs by LS/MS analysis; assay type: ADME, organism-based, Pneumocyte; conditions: human, alveolar cells, read-out: Drug uptake
[10] = AUC (0 to 12 hrs) in lung transplant recipient epithelial lining fluid at 400 mg, po every 12 hrs by LC/MS analysis; assay type: ADME, organism-based; set-up: time < 12 hr, dose 400 mg, route oral; conditions: human, in vivo
[11] = Ratio of drug level in lung transplant human recipient epithelial lining fluid to plasma at 400 mg, po every 12 hrs after 8 hrs by LS/MS analysis; assay type: ADME, organism-based
[12] = T>MIC90 for Aspergillus spp. infected lung transplant recipient alveolar cell at 400 mg, po every 12 hrs by LS/MS analysis; assay type: functional, Pneumocyte
[13] = Drug level in lung transplant recipient alveolar cell at 400 mg, po every 12 hrs after 3 hrs by LS/MS analysis; assay type: ADME, organism-based, Pneumocyte; conditions: human, alveolar cells, read-out: Drug uptake
[14] = Cmin in lung transplant recipient alveolar cell at 400 mg, po every 12 hrs after 12 hrs by LC/MS analysis; assay type: ADME, organism-based, Pneumocyte; conditions: human, alveolar cells, read-out: Cmin
[15] = Drug level in lung transplant recipient epithelial lining fluid at 400 mg, po every 12 hrs after 5 hrs by LS/MS analysis; assay type: ADME, organism-based; conditions: human, read-out: Drug uptake
[16] = AUC (0 to 12 hrs) in lung transplant recipient alveolar cell at 400 mg, po every 12 hrs by LC/MS analysis; assay type: ADME, organism-based, Pneumocyte; set-up: time < 12 hr, dose 400 mg, route oral; conditions: human, in vivo
[17] = AUC (0 to 24 hrs) in lung transplant recipient epithelial lining fluid at 400 mg, po every 12 hrs by LC/MS analysis; assay type: ADME, organism-based; set-up: time < 24 hr, dose 400 mg, route oral; conditions: human, in vivo
[18] = Ratio of drug level in lung transplant human recipient epithelial lining fluid to plasma at 400 mg, po every 12 hrs after 12 hrs by LS/MS analysis; assay type: ADME, organism-based
[19] = Drug level in lung transplant recipient plasma at 400 mg, po every 12 hrs after 5 hrs by LS/MS analysis; assay type: ADME, organism-based; conditions: human, read-out: Drug uptake
[20] = Ratio of fCmax in lung transplant recipient plasma after 12 hrs to MIC90 for Aspergillus spp.; assay type: functional
[21] = Ratio of AUC (0 to 12 hrs) in lung transplant recipient epithelial lining fluid to MIC90 for Aspergillus spp.; assay type: functional
[22] = Ratio of AUC (0 to 12 hrs) in lung transplant recipient alveolar cell to MIC90 for Aspergillus spp.; assay type: functional, Pneumocyte
[23] = Drug level in lung transplant recipient epithelial lining fluid at 400 mg, po every 12 hrs after 8 hrs by LS/MS analysis; assay type: ADME, organism-based; conditions: human, read-out: Drug uptake
[24] = Ratio of drug level in lung transplant human recipient epithelial lining fluid to plasma at 400 mg, po every 12 hrs after 5 hrs by LS/MS analysis; assay type: ADME, organism-based
[25] = Cmax in lung transplant recipient epithelial lining fluid at 400 mg, po every 12 hrs after 12 hrs by LC/MS analysis; assay type: ADME, organism-based; set-up: dose 400 mg, route oral; conditions: human
[26] = Drug level in lung transplant recipient plasma at 400 mg, po every 12 hrs after 24 hrs by LS/MS analysis; assay type: ADME, organism-based; conditions: human, read-out: Drug uptake
[27] = Cmin in lung transplant recipient plasma at 400 mg, po every 12 hrs after 12 hrs by LC/MS analysis; assay type: ADME, organism-based; conditions: human, read-out: Cmin
[28] = Protein binding in human plasma at 400 mg, po BID by LS/MS analysis; assay type: ADME, organism-based; conditions: read-out: PPB
[29] = Ratio of drug level in lung transplant human recipient alveolar cell to plasma at 400 mg, po every 12 hrs after 3 hrs by LS/MS analysis; assay type: ADME, organism-based, Pneumocyte; conditions: other tissue
[30] = Ratio of Cmax in lung transplant recipient plasma after 12 hrs to MIC90 for Aspergillus spp.; assay type: functional
[31] = Ratio of drug level in lung transplant human recipient epithelial lining fluid to plasma at 400 mg, po every 12 hrs after 24 hrs by LS/MS analysis; assay type: ADME, organism-based
[32] = Drug level in lung transplant recipient plasma at 400 mg, po every 12 hrs after 8 hrs by LS/MS analysis; assay type: ADME, organism-based; conditions: human, read-out: Drug uptake
[33] = AUC (0 to 24 hrs) in lung transplant recipient alveolar cell at 400 mg, po every 12 hrs by LC/MS analysis; assay type: ADME, organism-based, Pneumocyte; set-up: time < 24 hr, dose 400 mg, route oral; conditions: human, in vivo
[34] = Drug level in lung transplant recipient plasma at 400 mg, po every 12 hrs after 3 hrs by LS/MS analysis; assay type: ADME, organism-based; conditions: human, read-out: Drug uptake
[35] = Ratio of AUC (0 to 24 hrs) in lung transplant recipient plasma to MIC90 for Aspergillus spp.; assay type: functional
[36] = Drug level in lung transplant recipient epithelial lining fluid at 400 mg, po every 12 hrs after 12 hrs by LS/MS analysis; assay type: ADME, organism-based; conditions: human, read-out: Drug uptake
[37] = Drug level in lung transplant recipient plasma at 400 mg, po every 12 hrs after 12 hrs by LS/MS analysis; assay type: ADME, organism-based; conditions: human, read-out: Drug uptake
[38] = Ratio of AUC (0 to 12 hrs) in lung transplant recipient plasma to MIC90 for Aspergillus spp.; assay type: functional
[39] = Drug level in lung transplant recipient alveolar cell at 400 mg, po every 12 hrs after 8 hrs by LS/MS analysis; assay type: ADME, organism-based, Pneumocyte; conditions: human, alveolar cells, read-out: Drug uptake
[40] = Ratio of drug level in lung transplant human recipient alveolar cell to plasma at 400 mg, po every 12 hrs after 24 hrs by LS/MS analysis; assay type: ADME, organism-based, Pneumocyte; conditions: other tissue
[41] = Ratio of Cmax in lung transplant recipient alveolar cell after 12 hrs to MIC90 for Aspergillus spp.; assay type: functional, Pneumocyte
[42] = Ratio of drug level in lung transplant human recipient alveolar cell to plasma at 400 mg, po every 12 hrs after 5 hrs by LS/MS analysis; assay type: ADME, organism-based, Pneumocyte; conditions: other tissue
[43] = Ratio of AUC (0 to 24 hrs) in lung transplant recipient alveolar cell to MIC90 for Aspergillus spp.; assay type: functional, Pneumocyte
[44] = Ratio of drug level in lung transplant human recipient alveolar cell to plasma at 400 mg, po every 12 hrs after 8 hrs by LS/MS analysis; assay type: ADME, organism-based, Pneumocyte; conditions: other tissue
[45] = Cmax in lung transplant recipient plasma at 400 mg, po every 12 hrs after 12 hrs by LC/MS analysis; assay type: ADME, organism-based; set-up: dose 400 mg, route oral; conditions: human
Plasma [46] = experiment: AUC (0 to 12 hrs) in lung transplant recipient plasma at 400 mg, po every 12 hrs by LC/MS analysis; assay type: ADME, organism-based; set-up: dose 400 mg, time < 12 hr, route oral; conditions: human, in vivo
[47] = Drug level in lung transplant recipient epithelial lining fluid at 400 mg, po every 12 hrs after 24 hrs by LS/MS analysis; assay type: ADME, organism-based; conditions: human, read-out: Drug uptake
[48] = Tmax in lung transplant recipient plasma at 400 mg, po every 12 hrs after 12 hrs by LC/MS analysis; assay type: ADME, organism-based; conditions: human
[49] = Tmax in lung transplant recipient alveolar cell at 400 mg, po every 12 hrs after 12 hrs by LC/MS analysis; assay type: ADME, organism-based, Pneumocyte; conditions: human, alveolar cells
[50] = Ratio of fAUC (0 to 12 hrs) in lung transplant recipient plasma to MIC90 for Aspergillus spp.; assay type: functional
Plasma [51] = experiment: AUC (0 to 24 hrs) in lung transplant recipient plasma at 400 mg, po every 12 hrs by LC/MS analysis; assay type: ADME, organism-based; set-up: dose 400 mg, time < 24 hr, route oral; conditions: human, in vivo
[52] = T>MIC90 for Aspergillus spp. infected lung transplant recipient plasma at 400 mg, po every 12 hrs by LS/MS analysis; assay type: functional
[53] = Ratio of drug level in lung transplant human recipient alveolar cell to plasma at 400 mg, po every 12 hrs after 12 hrs by LS/MS analysis; assay type: ADME, organism-based, Pneumocyte; conditions: other tissue
[54] = Ratio of drug level in lung transplant human recipient epithelial lining fluid to plasma at 400 mg, po every 12 hrs after 3 hrs by LS/MS analysis; assay type: ADME, organism-based
[55] = Ratio of fAUC (0 to 24 hrs) in lung transplant recipient plasma to MIC90 for Aspergillus spp.; assay type: functional

## CC[C@@H]([C@H](C)O)n1ncn(-c2ccc(N3CCN(c4ccc(OC[C@@H]5CO[C@@](Cn6cncn6)(c6ccc(F)cc6F)C5)cc4)CC3)cc2)c1=O [POSACONAZOLE]
[1]
  concentration at 5 h: 31300 ng/mL
[2]
  Ratio: 36.84
[3]
  Cmax: 55400 ng/mL
[4]
  T>MIC90: 24 h
[5]
  Ratio: 2.6
[6]
  concentration at 3 h: 1100 ng/mL
[7]
  Tmax: 5.3 h
[8]
  concentration at 24 h: 49600 ng/mL
[9]
  concentration at 12 h: 36800 ng/mL
[10]
  AUC: 11.21 µg/h/mL
[11]
  Kp at 8 h: 0.9
[12]
  T>MIC90: 24 h
[13]
  concentration at 3 h: 55400 ng/mL
[14]
  concentration at 12 h: 31300 ng/mL
[15]
  concentration at 5 h: 1300 ng/mL
[16]
  AUC: 530.2 µg/h/mL
[17]
  AUC: 22.42 µg/h/mL
[18]
  Kp at 12 h: 1
[19]
  concentration at 5 h: 1100 ng/mL
[20]
  Ratio: 0.04
[21]
  Ratio: 18.42
[22]
  Ratio: 1162
[23]
  concentration at 8 h: 1000 ng/mL
[24]
  Kp at 5 h: 0.57
[25]
  Cmax: 1300 ng/mL
[26]
  concentration at 24 h: 740 ng/mL
[27]
  concentration at 12 h: 810 ng/mL
[28]
  fraction unbound: < 0.02
[29]
  Ratio: 40.7
[30]
  Ratio: 2.5
[31]
  Kp at 24 h: 0.68
[32]
  concentration at 8 h: 810 ng/mL
[33]
  AUC: 1060 µg/h/mL
[34]
  concentration at 3 h: 1300 ng/mL
[35]
  Ratio: 39.9
[36]
  concentration at 12 h: 1200 ng/mL
[37]
  concentration at 12 h: 930 ng/mL
[38]
  Ratio: 19.95
[39]
  concentration at 8 h: 54700 ng/mL
[40]
  Ratio: 56.4
[41]
  Ratio: 110.8
[42]
  Ratio: 27.3
[43]
  Ratio: 2324
[44]
  Ratio: 63.6
[45]
  Cmax: 1300 ng/mL
Plasma [46]
  AUC: 10.99 µg/h/mL
[47]
  concentration at 24 h: 500 ng/mL
[48]
  Tmax: 2.8 h
[49]
  Tmax: 3.2 h
[50]
  Ratio: 0.33
Plasma [51]
  AUC: 21.98 µg/h/mL
[52]
  T>MIC90: 24 h
[53]
  Ratio: 53.3
[54]
  Kp at 3 h: 0.94
[55]
  Ratio: 0.6
